Where “and” joins values, the source holds several entries; their conditions need not be identical. Identical values can stand only once.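 Five concentrations, 48 hours, 96-well plates. GI50: concentration for 50% inhibition of growth. The concentration for full growth arrest is given as TGI.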
Tests used:
Test in all cases: NCI tumour cell line growth inhibition, 48 h
HL-60(TB) leukemia = test system: HL-60(TB) leukemia
OVCAR-3 ovarian = test system: OVCAR-3 ovarian
SK-OV-3 ovarian = test system: SK-OV-3 ovarian
KM12 colon = test system: KM12 colon
A498 renal = test system: A498 renal
SK-MEL-2 melanoma = test system: SK-MEL-2 melanoma
NCI-H522 lung = test system: NCI-H522 lung
SN12C renal = test system: SN12C renal
HOP-92 NSCLC = test system: HOP-92 NSCLC
EKVX NSCLC = test system: EKVX NSCLC

Row | SMILES | GI50 (HL-60(TB) leukemia) | TGI (HL-60(TB) leukemia) | TGI (OVCAR-3 ovarian) | GI50 (SK-OV-3 ovarian) | TGI (SK-OV-3 ovarian) | TGI (KM12 colon) | GI50 (A498 renal) | TGI (A498 renal) | TGI (SK-MEL-2 melanoma) | TGI (NCI-H522 lung) | GI50 (SN12C renal) | TGI (SN12C renal) | TGI (HOP-92 NSCLC) | TGI (EKVX NSCLC) | GI50 (OVCAR-3 ovarian) | GI50 (KM12 colon) | GI50 (SK-MEL-2 melanoma) | GI50 (NCI-H522 lung) | GI50 (HOP-92 NSCLC) | GI50 (EKVX NSCLC)
1 | Cc1nc2c(Br)cc(Br)cc2c(=O)n1-c1ccccc1NC1OCC(O)C(O)C1O (stereo unspecified) | 18.6 µM and 7.03 µM | 43.4 µM and 15.7 µM | 69.3 µM and 60.9 µM | 76.3 µM and 29.9 µM | > 100 µM | 67 µM | 87.2 µM and 18.3 µM | > 100 µM and 45.6 µM | > 100 µM | 92.4 µM and 47.1 µM | 46.8 µM and 21.9 µM | > 100 µM | 82.1 µM and > 100 µM | > 100 µM |  |  |  |  |  | 
2 | CNCc1cccc2c1OCCOCCOCCC(C)S(=O)(=O)c1ccc(cc1)-c1cnc(N)c(n1)C(=O)N2 (stereo unspecified) | 1.81 µM | 3.83 µM | 2.59 µM | 0.525 µM | 2.87 µM | 6.78 µM | 0.139 µM | 2.14 µM | 6.36 µM | 3.25 µM | 1.24 µM | 3.14 µM | 25 µM | 18.6 µM | 1.16 µM | 1.69 µM | 2.37 µM | 1.23 µM | 11.5 µM | 4.46 µM
3 | CC(=O)OCC1OC(n2c(=S)n(-c3ccccc3)c(=O)c3cc(Br)cc(Br)c32)C(OC(C)=O)C(OC(C)=O)C1OC(C)=O (stereo unspecified) |  | > 100 µM | > 100 µM | 45.1 µM and > 100 µM | > 100 µM | > 100 µM |  | > 100 µM | > 100 µM | > 100 µM and 84.7 µM |  | > 100 µM | 63.3 µM and > 100 µM | > 100 µM | 47.4 µM and > 100 µM |  |  | > 100 µM and 28.6 µM | 15.3 µM and 46.9 µM | 
4 | NC(N)=N/N=C/c1c(-c2ccncc2)nc2sc(Cl)cn12 | 19 µM | 45 µM | 11.6 µM | 22.4 µM | 48.1 µM | 10.8 µM | 17.4 µM | 41.2 µM | > 33.7 µM | > 28.5 µM | 2.59 µM | 8.58 µM | 4.63 µM | 39.2 µM | 5.55 µM | 2.48 µM | 11.8 µM | 10.1 µM | 1.43 µM | 21 µM
5 | CCN(CC)CCOc1ccc2c(C)c(C(=O)OC)oc2c1C(=O)/C=C/c1ccc(OC)cc1 | 1.94 µM | 6.11 µM | 12.2 µM | 4.12 µM | 13.8 µM | 3.96 µM | 22.8 µM | 44.4 µM | > 23.2 µM | 15.2 µM | 0.166 µM | 2.66 µM | 2.77 µM | 36.5 µM | 4.36 µM | 1.76 µM | 9.99 µM | 4.3 µM | 0.551 µM | 19.7 µM
6 | CCOc1ccccc1NC(=O)C1=C(C)NC(C)=C(C(=O)Nc2ccccc2OCC)C1c1ccc([N+](=O)[O-])cc1 |  | > 100 µM | > 100 µM |  | > 100 µM | > 100 µM |  | > 100 µM | > 100 µM | > 100 µM |  | > 100 µM | > 100 µM | > 100 µM |  |  |  |  |  | 
7 | O=C(/C=C(\[O-])c1ccccc1)CCCCCCC(=O)/C=C(\[O-])c1ccccc1.O=C(/C=C(\[O-])c1ccccc1)CCCCCCC(=O)/C=C(\[O-])c1ccccc1.O=C(/C=C(\[O-])c1ccccc1)CCCCCCC(=O)/C=C(\[O-])c1ccccc1.[Nd+3].[Nd+3] | 3.05 µM | > 50 µM | > 50 µM | > 50 µM | > 50 µM | > 50 µM | > 50 µM | > 50 µM | > 50 µM | > 50 µM | > 50 µM | > 50 µM | > 50 µM | > 50 µM | > 50 µM | > 50 µM | > 50 µM | > 50 µM | 43.8 µM | > 50 µM
8 | COc1cc(/C=C2\C(=O)N(C)c3ccccc32)cc(OC)c1OC | 7.26 µM | > 100 µM | 76.9 µM | 20.9 µM | > 100 µM | 30.1 µM | 33 µM | > 100 µM | 45.8 µM | 37.8 µM | 17 µM | 69.5 µM | 70.6 µM | > 100 µM | 21.3 µM | 11.2 µM | 14.3 µM | 11.2 µM | 15.9 µM | 24.3 µM
9 | CCCCC[C@@H](C/C=C/CCC(=O)NC/C(=C/Cl)[C@H]1C(=O)C(C)(C)C(=O)[C@@H](C)[C@@]1(C)O)OC | 19.1 µM | 40.6 µM | 30.5 µM | 30.8 µM | 68.7 µM | 32.7 µM | 26 µM | 55 µM | 31.9 µM | 28 µM | 17.3 µM | 32 µM | 38.2 µM | 30.5 µM | 16.3 µM | 17.5 µM | 17.3 µM | 13.9 µM | 19.2 µM | 13.5 µM
10 | C=C(Cl)[C@@](Cl)(CBr)CC[C@@H](Br)C(C)(C)Cl | 0.0686 µM | > 100 µM and 10.5 µM | 2.87 µM and 1.35 µM | 8 µM | 22.2 µM and 26.3 µM | 2.36 µM and 0.689 µM |  | 5.57 µM and 1.93 µM | 2.72 µM and 1.85 µM | 34.5 µM and 43.5 µM |  | 17.3 µM | 0.807 µM | 15.1 µM and 7 µM |  |  | 0.552 µM |  |  | 
11 | COc1cc(N(CCC#N)CCC#N)ccc1/C(N=Nc1ccc(C(=O)O)cc1)=N/NC(=O)c1cc(Br)ccc1O | 55.4 µg/mL | > 150 µg/mL | > 150 µg/mL | 86.2 µg/mL | > 150 µg/mL | > 150 µg/mL | > 150 µg/mL | > 150 µg/mL | > 150 µg/mL | > 150 µg/mL | 102 µg/mL | > 150 µg/mL | > 150 µg/mL | > 150 µg/mL | 65 µg/mL | 50.3 µg/mL | > 150 µg/mL | 110 µg/mL | > 150 µg/mL | 137 µg/mL
12 | Cn1ccnc1C(=O)/C=C/c1ccc(C(=O)Nc2c(F)c(F)c(F)c(F)c2F)cc1 | 1.8 µM | 4.74 µM | 2.74 µM | 3.24 µM | 10.1 µM | 2.71 µM | 1.36 µM | 3.16 µM | 5.6 µM | 3.96 µM | 1.77 µM | 3.69 µM | 7.33 µM | 5.85 µM | 1.4 µM | 1.14 µM | 2.18 µM | 1.8 µM | 2.11 µM | 2.36 µM
13 | Fc1ccc(-c2nn3c(COc4ccc(Cl)cc4)nnc3s2)cc1Oc1ccccc1 | > 100 µM | > 100 µM | 37.8 µM | 78.9 µM | > 100 µM | > 100 µM | 15.3 µM | 51.8 µM | > 100 µM | > 66.8 µM | > 46.1 µM | > 67 µM | 21.7 µM | > 74.2 µM | 14.1 µM | 40.8 µM | 38.6 µM | 26.1 µM | 10.1 µM | 30.8 µM

From PubChem BioAssay (NCI)
